Data: patent US12059413B2, “Methods of inhibiting viruses using compositions targeting TSG101-ubiquitin interaction” (The Research Foundation for the State University of New York, priority 2016, dated 2024)

Key:
[1] = system: HIV-1 Gag VLP; assay: Gag VLP production / budding, Western blot analysis; assay type: cell-based
Description: FIG. 15A-D. N16 inhibits HIV-1 NL4-3 and Gag VLP production. A) Effect on virus production. Virus particles from N16-treated 293T cells transfected with pNL4-3 as determined by ELISA assay. Top, The compound was added 6 hr prior to DNA transfection and tissue culture media was harvested 24 hr later. Bottom, The compound was added at the indicated concentration 24 hr after DNA transfection and tissue culture media was harvested 24 hr later. Assay values were normalized to that of the DMSO carrier control. B) Effect on virus infectivity. Infectious viral particles per ng p24 as determined by MAGI assay. C) Left, Electron microscopy of particles at cell surface at 24 hr post-N16 addition; Right, Quantitative analysis of budding morphologies. Cells expressing WT- or P7L-NL4-3 were exposed to DMSO carrier or 50 μM N16. Arrows indicate emerging ‘Early’ buds. D) Effects on Gag VLP production. Top, Western blot analysis. Cells treated at the indicated concentration were transfected with DNA encoding Gag-HA. At the end of the treatment period, tissue culture media was removed for VLP isolation. Cells were suspended in lysis buffer. Blots were probed for Gag-HA and actin. Bottom, Quantitative analysis. Ratio of VLP- or cell-associated Gag to actin normalized to the mock-treated control (0 μM N16). Number of independent trials (n) for A), B), C), and D)=3, 2, 2 and 3, respectively.
FIG. 21A-B. N16 suppresses the inhibitory effect of fusing DUb to Gag. […] Top, Western blot analysis of Gag in cushioned VLP samples; Middle, Gag and actin in cell lysates; Bottom, Quantitative analysis of VLP release efficiency normalized to the WT Gag control (Gag and Gag-DUb differed in sample size in order to yield visible signal); B) Effect of N16 on Gag and GagDUb VLP production. […] Bottom, Quantitative analysis of VLP production (left), lysate Gag (center) and VLP release efficiency (right) normalized to the mock-treated control. […]
For production of virus particles, 293T cells were transfected with pNL4-3-ΔEnv and pIIIB Env3-1 plasmids and for virus-like particles (VLP), with pCMV-Gag-HA as previously described (Watanabe et al. (2013)). For specific infectivity, media-associated p24 was determined by ELISA (Immunodiagnostics, Inc.) and equivalent amounts of p24 were used to infect HeLa-CD4+-LTR-3 gal cells for infectivity measurement by the multinuclear activation of a galactosidase indicator (MAGI) assay. […] For cell-associated Gag analysis, cell pellets were lysed with either Triton X-100 or RIPA buffer with complete mini protease inhibitor cocktail (Roche) and analyzed by Western blotting. Protein bands were visualized using an infrared-based imaging system (Odyssey, LI-COR Biotechnology) and band intensities measured using the Li-Cor Odyssey software version 2.1.15. […]

[2] = system: Gag-Tsg101 co-localization on the plasma membrane; assay: Gag-Tsg101 co-localization by fluorescence microscopy, Pearson's coefficient; assay type: cell-based
Description: FIG. 19A-F. N16 (50 μM) prevents co-localization of Gag and Tsg101 on the plasma membrane. A-E) Fluorescence microscopy images of cells that co-express Tsg101-Myc alone or GagWT-GFP and Tsg101-Myc. Cells grown on coverslips were co-transfected with DNA encoding Tsg101-Myc (A) or Tsg101-Myc and GagWT-GFP (B, D and E) or GagP7L-GFP (C) and treated with F15 (D) or N16 (E). After 24 hr the coverslips were processed for microscopy with Tsg101-Myc detected with anti-Myc antibody and Texas Red secondary antibody as described in Materials & Methods. A) Tsg101-Myc in cells treated with DMSO carrier (top) or N16 (bottom). B-E), Top panels, show signal from Gag-GFP; middle panels, images showing Tsg101-Myc signal; bottom panels, merged images showing signals from Gag-GFP and Tsg101-Myc. Boxes frame a region of the plasma membrane. F) Pearson's coefficient of correlation values determined for the images shown. Error bars indicate the highest values obtained for similar samples. n=6.
FIG. 26A-D. N16 binds covalently to C73 in the Tsg101 UEV domain. A) Activation of N16 to reactive sulfenamide. N16 (i) is converted to intermediates sulfenic acid (ii) and sulfenamide (iii) through acid catalysis to yield a covalently attached N16-Tsg101 UEV complex (iv). B) HNCACB Cβ regions for residues C73, L74, 186 and C87 of Tsg101 without (−) and with (+) N16. C) Examination by fluorescence microscopy of cells co-expressing GagWT-GFP and Tsg101WT-Myc, Tsg101C73A-Myc or Tsg101C87A-Myc in the absence and presence of 50 μM N16. n=3 D) Pearson's coefficient of correlation values.
Hela cells grown on cover slips were transfected with pCMV-Gag-EGFP alone or together with pLLEXP1-hTsg101-myc. Cells were fixed in 4% formaldehyde (Sigma) and permeabilized in 0.1% Triton X-100. Tsg101 was detected in the samples by indirect immunofluorescence using anti-myc Mab and Texas Red anti-mouse IgG. Nuclei were stained with Hoechst. Images were captured on an inverted fluorescence/differential-interference contrast (dic) Zeiss Axiovert 200M deconvolving fluorescence microscope operated by AxioVision Version 4.5 (Zeiss) software and deconvolved by using the constrained iterative method (AxioVision). Protein co-localization was assessed in 40 or more cells by determination of Pearson's coefficient of correlation using Image J software and regarded as significant when a value of 0.6 or higher (equivalent to a 95% level of confidence for that number of cells) was observed (Manders, E. M. M., et al. (1993)).

## COc1ccc2[nH]c([S+]([O-])Cc3ncc(C)c(OC)c3C)nc2n1 (centres unmarked) [N16, tenatoprazole]
[1]; 50 μM N16, 293T
  budding directed by WT Gag: inhibited
[1]; 293T, FIG. 15D
  Gag intracellular accumulation and VLP formation: dose-dependent reduction
[1]; N16 present, 293T
  budding of the Gag-DUb fusion: not inhibited
[2]; 50 μM N16
  co-localization of Gag and Tsg101C73A-myc: failed to prevent co-localization
  co-localization of Gag and Tsg101C87A-myc: effectively eliminated co-localization
[2]
  reduction of intensity of Gag-Tsg101 co-localization signal: ~2 fold

## COc1ccc2nc([S@@+]([O-])Cc3ncc(C)c(OC)c3C)[nH]c2c1 [F15, esomeprazole]
[1]; compared with Tenatoprazole
  effectiveness in tissue culture budding assay: less effective than Tenatoprazole
[2]
  reduction of intensity of Gag-Tsg101 co-localization signal: ~2 fold
